# Tested on: rabbit skeletal myofibrils (approximately 90% fast fibers)
# Experiment: Activation of fast skeletal myofibrils (PUMA coupled-enzyme ATPase assay)
# Type: biochemical
# Details: concentration at which the compound increased the enzymatic activity by 40%; calcium at pCa25; PM12 buffer pH 6.8
# Outline: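 Rabbit psoas myofibrils (Triton-washed, ~90% fast fibers) at calcium giving 25% of maximal ATPase rate (pCa25). ADP regenerated via pyruvate kinase/lactate dehydrogenase coupling, NADH oxidation read as absorbance at 340 nm. Buffer 12 mM PIPES, 2 mM MgCl2, 1 mM DTT, pH 6.8.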
row,AC1.4,Structure (SMILES)
1,0.13 µM,"CCC[C@H]1C(=O)Nc2ccccc2N1C(=O)c1cnn(C)c1 [Compound 13, (S)-4-(1-methyl-1H-pyrazole-4-carbonyl)-3-propyl-3,4-dihydroquinoxalin-2(1H)-one]"
2,0.85 µM,"CC(C)[C@H]1C(=O)Nc2cnccc2N1C(=O)c1cnn(C)c1 [Compound 88, (S)-2-isopropyl-1-(1-methyl-1H-pyrazole-4-carbonyl)-1,4-dihydropyrido[3,4-b]pyrazin-3(2H)-one]"
3,0.23 µM,"CC[C@H](C)[C@H]1C(=O)Nc2cnccc2N1C(=O)c1cnn(C)c1 [Compound 89, (S)-2-((S)-sec-butyl)-1-(1-methyl-1H-pyrazole-4-carbonyl)-1,4-dihydropyrido[3,4-b]pyrazin-3(2H)-one]"
4,2.01 µM,"CC[C@H](C)[C@H]1C(=O)Nc2ccc(F)cc2N1C(N)=O [Compound 113, (S)-2-((S)-sec-butyl)-7-fluoro-3-oxo-3,4-dihydroquinoxaline-1(2H)-carboxamide]"
5,1.69 µM,"CC[C@H](C)[C@H]1C(=O)Nc2ccccc2N1C(=O)N1CCC[C@H](O)C1 [Compound 114, (S)-3-((S)-sec-butyl)-4-((S)-3-hydroxypiperidine-1-carbonyl)-3,4-dihydroquinoxalin-2(1H)-one]"
6,2.29 µM,"CC[C@H](C)[C@H]1C(=O)Nc2ccccc2N1C(=O)N(C)CCCO [Compound 115, (S)-2-((S)-sec-butyl)-N-(3-hydroxypropyl)-N-methyl-3-oxo-3,4-dihydroquinoxaline-1(2H)-carboxamide]"
7,0.83 µM,"CC[C@H](C)[C@H]1C(=O)Nc2ccccc2N1C(=O)N1CCC[C@H](CO)C1 [Compound 116, (S)-3-((S)-sec-butyl)-4-((S)-3-(hydroxymethyl)piperidine-1-carbonyl)-3,4-dihydroquinoxalin-2(1H)-one]"
8,1.24 µM,"CC[C@H](C)[C@H]1C(=O)Nc2ccccc2N1C(=O)N1CC(F)(F)C1 [Compound 117, (S)-3-((S)-sec-butyl)-4-(3,3-difluoroazetidine-1-carbonyl)-3,4-dihydroquinoxalin-2(1H)-one]"
9,1.25 µM,"CC[C@H](C)[C@H]1C(=O)Nc2ccccc2N1C(=O)OC [Compound 125, methyl (S)-2-((S)-sec-butyl)-3-oxo-3,4-dihydroquinoxaline-1(2H)-carboxylate]"
10,1.53 µM,"CC[C@H](C)[C@H]1C(=O)Nc2ccccc2N1C(=O)N[C@H]1CCNC1 [Compound 126, (S)-2-((S)-sec-butyl)-3-oxo-N-((S)-pyrrolidin-3-yl)-3,4-dihydroquinoxaline-1(2H)-carboxamide]"
11,1.3 µM,"CC[C@H](C)[C@H]1C(=O)Nc2ccccc2N1C(=O)N[C@H]1CCN(C)C1 [Compound 129, (S)-2-((S)-sec-butyl)-N-((S)-1-methylpyrrolidin-3-yl)-3-oxo-3,4-dihydroquinoxaline-1(2H)-carboxamide]"
12,2.13 µM,"CC[C@H](C)[C@H]1C(=O)Nc2ccccc2N1C(=O)NC1CCN(CCO)CC1 [Compound 130, (S)-2-((S)-sec-butyl)-N-(1-(2-hydroxyethyl)piperidin-4-yl)-3-oxo-3,4-dihydroquinoxaline-1(2H)-carboxamide]"
13,2.15 µM,"CC[C@H](C)[C@H]1C(=O)Nc2ccccc2N1C(=O)N(C)CCO [Compound 131, (S)-2-((S)-sec-butyl)-N-(2-hydroxyethyl)-N-methyl-3-oxo-3,4-dihydroquinoxaline-1(2H)-carboxamide]"
14,0.64 µM,"CC[C@H](C)[C@H]1C(=O)Nc2ccccc2N1C(=O)N[C@H]1C[C@H](O)C1 [Compound 132, (S)-2-((S)-sec-butyl)-N-((1R,3S)-3-hydroxycyclobutyl)-3-oxo-3,4-dihydroquinoxaline-1(2H)-carboxamide]"
15,1.68 µM,"CC[C@H](C)[C@H]1C(=O)Nc2ccccc2N1C(=O)N[C@H]1C[C@@H](O)C1 [Compound 133, (S)-2-((S)-sec-butyl)-N-((1s,3R)-3-hydroxycyclobutyl)-3-oxo-3,4-dihydroquinoxaline-1(2H)-carboxamide]"

# Tested on: ankle plantarflexor muscle contractile force
# Experiment: Rat isometric ankle plantarflexor muscle force
# Type: in vivo, Sprague Dawley rats
# Details: estimated concentration at which muscle force is 50% of pre-dose maximum tension, 30 Hz stimulation, continuous intravenous infusion over sixty minutes, female rats
# Excerpt: Female Sprague Dawley rats were placed under a stable anesthesic plane with inhaled isoflurane (1-5%). One incision was made on the mid-thigh region of the right leg to expose the sciatic nerve. To prevent co-contraction of the ankle dorsiflexors, an additional incision was made lateral to the patella to isolate and sever the peroneal nerve. Rats were then placed on a temperature-maintained in situ muscle analysis rig (Aurora Scientific, Model 806C). The knee was immobilized in a clamp between two sharpened screws and the foot was taped to a footplate attached to a force transducer (Aurora Scientific, Ontario, Canada). Stainless steel needle electrodes (0.10 mm) were hooked around the exposed sciatic nerve. Isometric ankle plantarflexor muscle contractile force was assessed with the ankle joint at 90° flexion. A 30 Hz electrical stimulation (under supramaximal voltage conditions) was applied to the nerve and the resulting muscle force was recorded via a servomotor. A pre-dose 30 Hz force response was established as the baseline force. A pre-dose 150 Hz force response was established as the maximum isometric force. Compounds were formulated in 50% polyethylene glycol (PEG): 16% Cavitron: 10% dimethylacetamide (DMA) and administered by continuous intravenous infusion over a sixty minute period. The muscle force response to compound was measured every two minutes over the dosing period. Data were reported as an estimated EC50 value, which is the concentration at which muscle force is 50% of the pre-dose maximum tension. In Table 4, “Example Compound” refers to the compound labeled with the same number in Table 2.
row,Structure (SMILES),EC50
1,"CCC[C@H]1C(=O)Nc2ccccc2N1C(=O)c1cnn(C)c1 [Compound 13, (S)-4-(1-methyl-1H-pyrazole-4-carbonyl)-3-propyl-3,4-dihydroquinoxalin-2(1H)-one]",15.7 µM
2,"CC(C)[C@H]1C(=O)Nc2cnccc2N1C(=O)c1cnn(C)c1 [Compound 88, (S)-2-isopropyl-1-(1-methyl-1H-pyrazole-4-carbonyl)-1,4-dihydropyrido[3,4-b]pyrazin-3(2H)-one]",20.1 µM
3,"CC[C@H](C)[C@H]1C(=O)Nc2cnccc2N1C(=O)c1cnn(C)c1 [Compound 89, (S)-2-((S)-sec-butyl)-1-(1-methyl-1H-pyrazole-4-carbonyl)-1,4-dihydropyrido[3,4-b]pyrazin-3(2H)-one]",23.9 µM

# From US20250296916A1, “BICYCLIC PIPERAZINONES AND THERAPEUTIC USES THEREOF” (Cytokinetics, Inc., priority 2022, published 2025)
